Like-named read-outs stand apart in the source and are kept apart here.
Tests used:
[1] = pH 7.4
Description: (§1) The penetration rates of HPPs and their parent drugs through human skin were measured in vitro by modified Franz cells. The Franz cells have two chambers, the top sample chamber and the bottom receiving chamber. The human skin tissue (360-400 μm thick) that separates the top and the receiving chambers was isolated from the anterior or posterior thigh areas.
(§2) The compound tested (2 mL, 20% in 0.2 M phosphate buffer, pH. 7.4) were added to the sample chamber of a Franz cell. The receiving chamber contains 10 ml of 2% bovine serum albumin in saline which was stirred at 600 rpm. The cumulative amounts of the tested compounds penetrating the skin versus time were determined by high-performance liquid chromatography (HPLC) method.

Solubility in water = type: physicochemical
Description: 37.7 g (0.1 mol) of sodium 11,15-dihydroxy-9-oxoprost-13-en-1-oate was dissolved in 100 ml of acetonitrile. 26.1 g (0.1 mol) of 2-Bromo-N,N-diethylethylamine.HBr and 8.6 g of sodium bicarbonate were added into the reaction mixture. The mixture was stirred for overnight at RT. The solvents were evaporated off. 250 ml of ethyl acetate was added into the reaction mixture and the mixture was washed with water (3×100 ml). The organic solution was dried over anhydrous sodium sulfate. Sodium sulfate was removed by filtration. 6 g of acetic acid was added into the reaction mixture with stirring. Hexane (200 ml) was added. The solid product was collected by filtration. After drying, it yielded 42 g of the desired product (81.8%). Hygroscopic product; Solubility in water: 100 mg/ml; Elementary analysis: C28H51NO7; MW: 513.37. Calculated % C, 65.47; H, 10.01; N, 2.73; O, 21.80. Found % C, 65.42; H, 10.03; N, 2.70; O, 21.85.
43.7 g (0.1 mol) of 11,15-diacetoxy-9-oxoprosta-5,13-dien-1-oic acid was dissolved in 300 ml of chloroform. 20.6 g of N,N′-Dicyclohexylcarbodiimide was added into the reaction mixture. 11.7 g of N,N-diethylaminoethylamine was added into the reaction mixture. The mixture was stirred for 3 hours at RT. The solid was removed by filtration. The chloroform solution was washed with 5% NaHCO3 (2×100 ml) and water (3×100 ml). The organic solution was dried over anhydrous sodium sulfate. Sodium sulfate was removed by filtration. 6 g of acetic acid was added into the reaction mixture with stirring. Hexane (200 ml) was added. The solid product was collected by filtration. After drying, it yielded 45 g of the desired product (85.8%). Hygroscopic product; Solubility in water: 100 mg/ml; Elementary analysis: C34H59NO9S; MW: 657.90. Calculated % C, 62.07; H, 9.04; N, 2.13; O, 21.89; S, 4.87. Found % C, 62.02; H, 9.06; N, 2.11; O, 21.95; S, 4.86.
49.9 g (0.1 mol) of 9,11,15-triacetoxyprost-13-en-1-oic acid was dissolved in 300 ml of chloroform. 20.6 g of N,N′-Dicyclohexylcarbodiimide was added into the reaction mixture. 13.1 g of dimethylaminoethyl mercaptan was added into the reaction mixture. The mixture was stirred for 3 hours at RT. The solid was removed by filtration. The chloroform solution was washed with 5% NaHCO3 (2×100 ml) and water (3×100 ml). The organic solution was dried over anhydrous sodium sulfate. Sodium sulfate was removed by filtration. 6 g of acetic acid was added into the reaction mixture with stirring. Hexane (200 ml) was added. The solid product was collected by filtration. After drying, it yielded 45 g of the desired product (85.8%). Hygroscopic product; Solubility in water: 100 mg/ml; Elementary analysis: C32H53NO9; MW: […] Calculated % C, 64.51; H, 8.97; N, 2.35; O, 24.17. Found % C, 64.47; H, 8.99; N, 2.34; O, 24.20.
37.7 g (0.1 mol) of sodium 9,11,15-trihydroxyprosta-5,13-dien-1-oate was dissolved in 100 ml of acetonitrile. 39 g (0.15 mol) of 2-Bromo-N,N-diethylethylamine.HBr in ethyl acetate was added into the reaction mixture. The mixture was stirred for 3 h at RT. Then 8 g of sodium bicarbonate was added into the reaction mixture. The mixture is stirred for another 2 h at RT. The solvents were evaporated off. 250 ml of ethyl acetate was added into the reaction mixture and the mixture was washed with water (3×100 ml). The organic solution was dried over anhydrous sodium sulfate. Sodium sulfate was removed by filtration. 6 g of acetic acid was added into the reaction mixture with stirring. […] Calculated % C, 65.47; H, 10.01; N, 2.73; O, 21.80. […]

rabbit eye = experiment: Conjunctival hyperemia in the rabbit eye after topical application; type: in vivo; details: dose 0.001% topical, first 2 hours, scale 0 (no hyperemia) to 4 (marked hyperemia with conjunctive chemosis)
Description: Conjunctival hyperemia in the rabbit eye of naturally occurring and modified prostaglandins and their novel prodrugs was evaluated during the first 2 hours after topical application of the respective test drug. The conjunctival hyperemia was graded on a scale from 0 to 4, 0 indicating complete absence of any hyperemia, and 4 indicating marked hyperemia with conjunctive chemosis.

cat eye = experiment: Irritative effect or ocular discomfort in the cat eye after topical application; type: in vivo; details: dose 0.001% topical, first 2 hours, scale 0 (no discomfort) to 4 (maximal irritation, complete lid closure)
Description: Irritative effect or ocular discomfort in the cat eye of naturally occurring and modified prostaglandins and their novel prodrugs were evaluated during the first hours after the topical application of the respective test drug. The ocular discomfort was graded on a scale from 0 to 4, 0 indicating complete absence of any signs of discomfort, and 4 indicating maximal irritation as obvious from complete lid closure.

[2] = tested on: cats with ocular hypertension; experiment: Intraocular pressure (IOP) reduction in cats with ocular hypertension produced by laser trabeculoplasty; type: in vivo, cat
Description: The ability of certain compounds of the present invention to reduce intraocular pressure (IOP) was evaluated in cats with ocular hypertension produced by previously done laser trabeculoplastry. IOP was determined with a pneumatonometer after light corneal anesthesia with dilute proparacaine. Baseline IOP was determined prior to treatment with the test compound aqueous solution. 6 divided doses were administered over a period of 3 days (once every 12 hours). IOP was determined 24 hours after the initial dose and then once every 12 hours. The therapeutically efficient amount is typically between 0.001 and 0.01% in pH 7.2 phosphate buffer (0.1 M). The treatment was carried out in that one drop (about 30 micro liter) of the composition. The results of N,N-diethylaminoethyl 11,15-dihydroxy-9-oxoprost-13-en-1-oate.AcOH (A), N,N-diethylaminoethyl 11,15-dihydroxyl-9-oxoprosta-5,13-dien-1-oate.AcOH (B), N,N-diethylaminoethyl 9,11,15-trihydroxyprosta-5,13-dien-1-oate.AcOH(C), N,N-diethylaminoethyl 9,11-dihydroxy-15-keto-20-ethylprost-5,13-dien-1-oate.AcOH (9,11-dihydroxy-15-keto-20-ethylprostaglandin F2α N,N-diethylaminoethyl ester) (D), N,N-diethylaminoethyl (Z)-7-{(1R,2R,3R,5S)-3,5-dihydroxy-2-[(1E,3R)-3-hydroxy-4-[(α,α,α-trifluoro-m-tolyl)oxy]-1-butenyl]cyclopentyl}-5-heptenoate.AcOH (E), N,N-diethylaminoethyl (Z)-7{(1R,2R,3R,5S)-3,5-dihydroxy-2-[(3R)-3-hydroxy-5-phenylpentyl]cyclopentyl}-5-heptenoate.AcOH (F), and N,N-diethylaminoethyl (Z)-7-{(1R,2R,3R,5S)-3,5-Dihydroxy-2-[(1E,3S)-3-hydroxy-5-phenyl-1-pentenyl]cyclopentyl}-heptenoate.AcOH (G) are shown in Table 2.

[3] = In vitro penetration rate across isolated human skin in modified Franz cells; details: 10% solution in pH 7.4 phosphate buffer (0.2 M), n=5
Description: as §1, §2

rats = experiment: Sexual behaviour (solicitation, copulation) of rats after application to genital area; type: in vivo, rat
Description: The HPP of the invention can diffuse through human skin in very high rate (˜1 mg/h/cm^2) and can provide almost side-effects-free methods of treating erectile dysfunction or enhancing female sexual arousal. About 0.01 ml of 0.0005% [˜0.05 μg (microgram)] N,N-diethylaminoethyl 11,15-dihydroxy-9-oxoprost-13-en-1-oate.AcOH in pH 7.0 phosphate buffer (0.1 M) was applied to genital area of male rats (30 rats) once per day for 5 days.
When same amount of N,N-diethylaminoethyl 11,15-dihydroxy-9-oxoprost-13-en-1-oate.AcOH in pH 7.0 phosphate buffer (0.1 M) were applied to genital area of both male rats (30 rats) and female rats (30 rates) once per day for 5 days.

[4] = Milosovich et al., J. Pharm. Sci., 82, 227 (1993); cited from earlier work
[5] = dose 0.001%, one drop topical every 12 hours, 6 doses
[6] = about 0.01 ml of 0.0005% (~0.05 μg) applied to genital area of male rats once per day for 5 days
[7] = same amount applied to genital area of both male and female rats once per day for 5 days

CC(=O)O.CCCCCC(C)(O)C=C[C@H]1C(O)CC(O)[C@@H]1CC=CCCCC(=O)OCCN(CC)CC (stereo partly shown) [N,N-diethylaminoethyl 9,11,15-trihydroxy-15-methylprosta-5,13-dien-1-oate.AcOH]
In vitro penetration rate (apparent flux), prodrug compounds [1]: 0.80 mg/cm^2/h | Solubility in water (Solubility in water): 100 mg/mL

CC(=O)O.CCCCCC(O)C=C[C@H]1C(O)CC(O)[C@@H]1CC=CCCCC(=O)OCCN(CC)CC (stereo partly shown) [N,N-diethylaminoethyl 9,11,15-trihydroxyprosta-5,13-dien-1-oate.AcOH]
Degree of irritative effect (conjunctival hyperemia) (rabbit eye): 1 | Degree of irritative effect (cat eye): 1 | Intraocular pressure, 24 hours after administration [2, 5]: 15.5 ± 0.5 | Intraocular pressure, 36 hours after administration [2, 5]: 15.6 ± 0.6 | Intraocular pressure, 48 hours after administration [2, 5]: 15.7 ± 0.5 | Intraocular pressure, 60 hours after administration [2, 5]: 15.6 ± 0.7 | Intraocular pressure, 72 hours after administration [2, 5]: 15.5 ± 0.6 | Intraocular pressure, baseline ([2]; prior to treatment, group dosed 0.001%): 22.5 ± 0.7 | In vitro penetration rate (apparent flux), prodrug compounds [3]: 0.94 mg/cm^2/h | Solubility in water (Solubility in water): 100 mg/mL

CC(=O)O.CCCCCC(O)C=CC1C(O)CC(=O)C1CCCCCCC(=O)OCCN(CC)CC (stereo not shown) [N,N-diethylaminoethyl 11,15-dihydroxy-9-oxoprost-13-en-1-oate.AcOH]
Increase in copulation compared to rats not given the drug (rats; [6]): 4 fold | Increase in solicitation compared to rats not given the drug (rats; [6]): 6 fold | Discomfort of treated rats (rats; applied to genital area of rats once per day for 5 days): did not show any discomfort | Increase in copulation compared to rats not given the drug (rats; [7]): 6 fold | Increase in solicitation compared to rats not given the drug (rats; [7]): 6 fold | In vitro penetration rate (apparent flux), prodrug compounds [3]: 1.01 mg/cm^2/h | Solubility in water (Solubility in water): 100 mg/mL

CC(=O)O.CCCCCC(C=C[C@H]1C(OC(C)=O)CC(OC(C)=O)[C@@H]1CCCCCCC(=O)SCCN(C)C)OC(C)=O (stereo partly shown) [S—(N,N-dimethylaminoethyl) 9,11,15-triacetoxythioprost-13-en-1-oate.AcOH]
Solubility in water (Solubility in water): 100 mg/mL

CN(C)CCCC(=O)O[C@H]1CC[C@H]2[C@@H]3CCC4=CC(=O)CC[C@]4(C)[C@H]3CC[C@]12C.Cl [TSBH, testosteronyl-4-dimethylaminobutyrate.HCl]
Diffusion through human skin, times faster than the parent drug (TS) [4]: about 60 times

N,N-diethylaminoethyl 11,15-diacetoxy-9-oxoprosta-5,13-dien-1-oamide.AcOH
Solubility in water (Solubility in water): 100 mg/mL
